The values below come from PubChem BioAssay (NCI).

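How tested: cells in 96-well plates exposed to compound for 48 hours at five concentrations. The concentration for 50% growth inhibition is given as GI50. TGI: concentration producing complete growth inhibition.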 Where only a bound is given, the exact number is not on record here.

For the first assay, the system named is UACC-257 melanoma. The assay can be described thus: inhibition of tumour cell growth, NCI panel, 48 h.
Regarding `CO[C@H]1/C=C(/C)CCC[C@H](C)[C@H](O)[C@@H](C)C(=O)C(C)(C)[C@@H](O)CC(=O)O[C@@H]1/C(C)=C/c1csc(C)n1`, the GI50 is 0.0452 µM and the TGI is more than 100 µM.
For the molecule `COc1cccc2c(=O)oc(-c3ccc(C(C)(C)C)cc3)nc12`, the TGI was more than 100 µM.
Still for that read-out and setting: then `COC(=O)C1CCC(=O)N1C(c1ccc(OC)cc1)c1ccc2c(c1)OCO2` (stereo not drawn), with more than 100 µM.
As for `CCN(CC)CCn1c(=O)c2cccnc2n2c3c(=O)n(C)c(=O)n(C)c3nc12`, the TGI is more than 100 µM.
`CC(=N/N=C/c1ccccn1)/C(C)=N/N=C(C)/C(C)=N/N=C(C)/C(C)=N/N=C(C)/C(C)=N\N=C\c1ccccn1`: the TGI was more than 100 µM.
In turn, `CC1=NN(c2cccc(Cl)c2)C2(C1=C/C=C/c1ccccc1)C(Cl)C(=O)N2c1nc2ccccc2s1` (stereo not drawn) registered a TGI of more than 100 µM.
With `C=CCSc1nnc2cc(CN3CCCC3)c(-c3ccc(Cl)cc3)nn12`, the TGI was 32.3 µM.
Molecule `CN(C)c1ccc(C(=N/N=C2\C(=O)Nc3ccccc32)c2ccc(N(C)C)cc2)cc1` showed a TGI of more than 83.8 µM.
Molecule `CCN(CC)CCN(C(=Nc1ccccc1)N1CCOCC1)c1ccccc1` displayed a TGI of more than 100 µM.
Regarding `CC1(C)CCCC2OC2CCC(C)(C)C1=O` (stereo not drawn), the TGI is more than 100 µM.
Take `COP(=O)(/C=C/c1cc(C(=O)OCc2ccccc2)n(S(=O)(=O)c2ccccc2)c1)OC`: the TGI is more than 100 µM.
In the case of `NC1=NCC(CN2CCOCC2)O1` (stereo not drawn), the TGI was more than 100 µM.
On the same count and under the same terms, then `CCC1(CC)C(=O)NN(C(=O)c2ccccc2)C1=O`, with more than 100 µM.

Another assay deals with OVCAR-4 ovarian. The assay can be described thus: inhibition of tumour cell growth, NCI panel, 48 h.
As to `O=C(O)/C=C(/C(=O)O)C12CCN3CC4=CCOC5CC(=O)NC1C5C4CC32` (stereo not drawn), the TGI is more than 100 µM.
Take `O=c1c2sc(=S)n(-c3ccc(F)cc3)c2ncn1/N=C/c1ccc(F)cc1F`: the TGI came out at 46.8 µM.
Molecule `CS(=O)c1ncc2c(n1)-c1ccccc1OC2` (stereo not drawn) came in with a TGI of more than 100 µM.
The same measure, in the same setting: then `COc1cccc2c1OC1(C=C2)Oc2ccccc2C(=O)N1C` (stereo not drawn), with more than 100 µM.
Regarding `O=[N+]([O-])c1ccc(Oc2c(Cl)cc(S(=O)(=O)/N=C(\NO)Nc3ccc(Cl)cc3)cc2Cl)cc1`, the TGI was 17.3 µM.
As for `O=c1[nH]c(=O)n(C2OC(CO)C(O)C2O)c2nc(-c3ccc(-c4ccccc4)cc3)cnc12` (stereo not drawn), the TGI was more than 100 µM.
Same read-out and setting: then `CN1CSC(=S)N(c2c3ccccc3nc3ccc(Br)cc23)C1`, with 25.7 µM.
Consider `O=C(O)c1ccccc1CC1Cc2ccccc2C1=O` (stereo not drawn), for which the TGI was more than 100 µM.
`CCCCCCOc1ccc(C(=O)NOC)cc1`: the TGI is more than 100 µM.
On to `NS(=O)(=O)c1cc(Cl)c(NC(=S)NC(=O)Nc2ccc(Cl)c(Cl)c2)c(Cl)c1`, for which the TGI is more than 100 µM.
The molecule `Cc1cn(C2CC(O)C(CO)O2)c(=O)[nH]c1=O` (stereo not drawn) returned a TGI of more than 4640 µM.
Consider `O=C1c2ccccc2-c2c1c(-c1ccc(F)cc1)nc1ccc3ccccc3c21`, for which the TGI is more than 100 µM.
The molecule `O=C(O)CCC(=O)OC1N=C(c2ccccc2Cl)c2cc([N+](=O)[O-])ccc2NC1=O` (stereo not drawn) had a TGI of more than 100 µM.
Turning to `CO[C@H]1/C=C(/C)CCC[C@H](C)[C@H](O)[C@@H](C)C(=O)C(C)(C)[C@@H](O)CC(=O)O[C@@H]1/C(C)=C/c1csc(C)n1`, the GI50 was 0.071 µM and the TGI is more than 100 µM.
`COc1cccc2c(=O)oc(-c3ccc(C(C)(C)C)cc3)nc12`: the TGI is more than 100 µM.
In turn, `COC(=O)C1CCC(=O)N1C(c1ccc(OC)cc1)c1ccc2c(c1)OCO2` (stereo not drawn) registered a TGI of more than 100 µM.
Take `CCN(CC)CCn1c(=O)c2cccnc2n2c3c(=O)n(C)c(=O)n(C)c3nc12`: the TGI is more than 100 µM.
In turn, `CC(=N/N=C/c1ccccn1)/C(C)=N/N=C(C)/C(C)=N/N=C(C)/C(C)=N/N=C(C)/C(C)=N\N=C\c1ccccn1` displayed a TGI of more than 100 µM.
The molecule `CC1=NN(c2cccc(Cl)c2)C2(C1=C/C=C/c1ccccc1)C(Cl)C(=O)N2c1nc2ccccc2s1` (stereo not drawn) returned a TGI of more than 100 µM.
The molecule `C=CCSc1nnc2cc(CN3CCCC3)c(-c3ccc(Cl)cc3)nn12` registered a TGI of 48 µM.
Molecule `CN(C)c1ccc(C(=N/N=C2\C(=O)Nc3ccccc32)c2ccc(N(C)C)cc2)cc1` showed a TGI of more than 32.6 µM.
Molecule `CCN(CC)CCN(C(=Nc1ccccc1)N1CCOCC1)c1ccccc1` gave a TGI of more than 100 µM.
Molecule `CC1(C)CCCC2OC2CCC(C)(C)C1=O` (stereo not drawn) showed a TGI of more than 100 µM.
Same read-out and setting: under `COP(=O)(/C=C/c1cc(C(=O)OCc2ccccc2)n(S(=O)(=O)c2ccccc2)c1)OC` stands more than 100 µM.
On the same count and under the same terms, under `NC1=NCC(CN2CCOCC2)O1` (stereo not drawn) stands more than 100 µM.
On the same count and under the same terms, under `CCC1(CC)C(=O)NN(C(=O)c2ccccc2)C1=O` stands more than 100 µM.

The next assay deals with MDA-MB-231 breast. Nature of the assay: inhibition of tumour cell growth, NCI panel, 48 h.
As for `O=C(O)/C=C(/C(=O)O)C12CCN3CC4=CCOC5CC(=O)NC1C5C4CC32` (stereo not drawn), the TGI is more than 100 µM.
Same read-out and setting: then `O=c1c2sc(=S)n(-c3ccc(F)cc3)c2ncn1/N=C/c1ccc(F)cc1F`, with 53.4 µM; and `CS(=O)c1ncc2c(n1)-c1ccccc1OC2` (stereo not drawn), with more than 100 µM.
In turn, `COc1cccc2c1OC1(C=C2)Oc2ccccc2C(=O)N1C` (stereo not drawn) showed a TGI of more than 100 µM.
With `O=[N+]([O-])c1ccc(Oc2c(Cl)cc(S(=O)(=O)/N=C(\NO)Nc3ccc(Cl)cc3)cc2Cl)cc1`, the TGI amounted to 25.3 µM.
On to `O=c1[nH]c(=O)n(C2OC(CO)C(O)C2O)c2nc(-c3ccc(-c4ccccc4)cc3)cnc12` (stereo not drawn), for which the TGI is more than 100 µM.
With `CN1CSC(=S)N(c2c3ccccc3nc3ccc(Br)cc23)C1`, the TGI was determined as 22.9 µM.
Same read-out and setting: then `O=C(O)c1ccccc1CC1Cc2ccccc2C1=O` (stereo not drawn), with more than 100 µM; and `CCCCCCOc1ccc(C(=O)NOC)cc1`, with more than 100 µM; and `NS(=O)(=O)c1cc(Cl)c(NC(=S)NC(=O)Nc2ccc(Cl)c(Cl)c2)c(Cl)c1`, with more than 100 µM.
In turn, `Cc1cn(C2CC(O)C(CO)O2)c(=O)[nH]c1=O` (stereo not drawn) returned a TGI of more than 5000 µM.
The molecule `O=C1c2ccccc2-c2c1c(-c1ccc(F)cc1)nc1ccc3ccccc3c21` yielded a TGI of more than 100 µM.
Molecule `O=C(O)CCC(=O)OC1N=C(c2ccccc2Cl)c2cc([N+](=O)[O-])ccc2NC1=O` (stereo not drawn) returned a TGI of more than 100 µM.
In the case of `CO[C@H]1/C=C(/C)CCC[C@H](C)[C@H](O)[C@@H](C)C(=O)C(C)(C)[C@@H](O)CC(=O)O[C@@H]1/C(C)=C/c1csc(C)n1`, the GI50 is 0.0428 µM and the TGI was more than 100 µM.
On to `COc1cccc2c(=O)oc(-c3ccc(C(C)(C)C)cc3)nc12`, for which the TGI was more than 100 µM.
In turn, `COC(=O)C1CCC(=O)N1C(c1ccc(OC)cc1)c1ccc2c(c1)OCO2` (stereo not drawn) registered a TGI of more than 100 µM.
In the case of `CCN(CC)CCn1c(=O)c2cccnc2n2c3c(=O)n(C)c(=O)n(C)c3nc12`, the TGI was more than 100 µM.
The same measure, in the same setting: under `CC(=N/N=C/c1ccccn1)/C(C)=N/N=C(C)/C(C)=N/N=C(C)/C(C)=N/N=C(C)/C(C)=N\N=C\c1ccccn1` stands more than 100 µM; under `CC1=NN(c2cccc(Cl)c2)C2(C1=C/C=C/c1ccccc1)C(Cl)C(=O)N2c1nc2ccccc2s1` (stereo not drawn), 58.3 µM; under `C=CCSc1nnc2cc(CN3CCCC3)c(-c3ccc(Cl)cc3)nn12`, 35.6 µM.
Same read-out and setting: then `CN(C)c1ccc(C(=N/N=C2\C(=O)Nc3ccccc32)c2ccc(N(C)C)cc2)cc1`, with 13.1 µM; and `CCN(CC)CCN(C(=Nc1ccccc1)N1CCOCC1)c1ccccc1`, with more than 100 µM; and `CC1(C)CCCC2OC2CCC(C)(C)C1=O` (stereo not drawn), with more than 100 µM.
The molecule `COP(=O)(/C=C/c1cc(C(=O)OCc2ccccc2)n(S(=O)(=O)c2ccccc2)c1)OC` returned a TGI of more than 100 µM.
As to `NC1=NCC(CN2CCOCC2)O1` (stereo not drawn), the TGI is more than 100 µM.
Take `CCC1(CC)C(=O)NN(C(=O)c2ccccc2)C1=O`: the TGI was more than 100 µM.
